This is an account of results in US9169315B2, “Heparin cofactor II fragments with anti-inflammatory and anti-coagulant activity” (XIMMUNE AB, priority 2009, dated 2015).

Data set [1] deals with S. pyogenes. The class given is cell-based. The protocol:
MIC assay was carried out by a microtiter broth dilution method as previously described in the NCSLA guidelines (Wiegand, I., Hilpert, K. & Hancock, R. E. Agar and broth dilution methods to determine the minimal inhibitory concentration (MIC) of antimicrobial substances. Nat Protoc 3, 163-175 (2008)). In brief, fresh overnight colonies were suspended to a turbidity of 0.5 units and further diluted in Mueller-Hinton broth (Becton Dickinson). For determination of MIC, peptides were dissolved in water at concentration 10 times higher than the required range by serial dilutions from a stock solution. Ten μl of each concentration was added to each corresponding well of a 96-well microtiter plate (polypropylene, Costar Corp.) and 90 μl of bacteria (1×10^5) in MH medium added. The plate was incubated at 37° C. for 16-18 h. MIC was taken as the lowest concentration where no visual growth of bacteria was detected.

Data set [2] concerns erythrocytes. The class given is cell-based, human.
The nature of data set [3]: Liposome leakage assay (carboxyfluorescein release). As to conditions: for CF release from liposomes: 10 mM Tris-buffer. The text has this: The liposomes investigated were anionic (DOPE/DOPG 75/25 mol/mol). DOPG (1,2-Dioleoyl-sn-Glycero-3-Phosphoglycerol, monosodium salt), and DOPE (1,2-dioleoyl-sn-Glycero-3-phoshoetanolamine) were all from Avanti Polar Lipids (Alabaster, USA) and of >99% purity. Due to the long, symmetric and unsaturated acyl chains of these phospholipids, several methodological advantages are reached. In particular, membrane cohesion is good, which facilitates very stable, unilamellar, and largely defect-free liposomes (observed from cryo-TEM) and well defined supported lipid bilayers (observed by ellipsometry and AFM), allowing detailed values on leakage and adsorption density to be obtained. The lipid mixtures were dissolved in chloroform, after which solvent was removed by evaporation under vacuum overnight. Subsequently, 10 mM Tris buffer, pH 7.4, was added together with 0.1 M carboxyfluorescein (CF) (Sigma, St. Louis, USA). After hydration, the lipid mixture was subjected to eight freeze-thaw cycles consisting of freezing in liquid nitrogen and heating to 60° C. Unilamellar liposomes of about Ø140 nm were generated by multiple extrusions through polycarbonate filters (pore size 100 nm) mounted in a LipoFast miniextruder (Avestin, Ottawa, Canada) at 22° C. Untrapped CF was removed by two subsequent gel filtrations (Sephadex G-50, GE Healthcare, Uppsala, Sweden) at 22° C., with Tris buffer as eluent. CF release from the liposomes was determined by monitoring the emitted fluorescence at 520 nm from a liposome dispersion ([…] in 10 mM Tris, pH 7.4). An absolute leakage scale was obtained by disrupting the liposomes at the end of each experiment through addition of 0.8 mM Triton X-100 (Sigma-Aldrich, St. Louis, USA). A SPEX-fluorolog 1650 0.22-m double spectrometer (SPEX Industries, Edison, USA) was used for the liposome leakage assay in Tris buffer in the absence and presence of liposomes under conditions described above. Measurements were performed in triplicate at 37° C.
The liposomes investigated were either zwitterionic (DOPC/cholesterol 60/40 mol/mol or DOPC without cholesterol) or anionic (DOPE/DOPG 75/25 mol/mol). DOPG (1,2-Dioleoyl-sn-Glycero-3-Phosphoglycerol, monosodium salt), DOPC (1,2-dioleoyl-sn-Glycero-3-phoshocholine), and DOPE (1,2-dioleoyl-sn-Glycero-3-phoshoetanolamine) were all from Avanti Polar Lipids (Alabaster, USA) and of >99% purity, while cholesterol (>99% purity), was from Sigma-Aldrich (St. Louis, USA). Due to the long, symmetric and unsaturated acyl chains of these phospholipids, several methodological advantages are reached. […] CF release from the liposomes was determined by monitoring the emitted fluorescence at 520 nm from a liposome dispersion (10 mM lipid in 10 mM Tris, pH 7.4). […]

No end group written: not given here.

As usually defined, the MIC is the lowest concentration that inhibits growth of the organism. A lower MIC goes with inhibition by little substance.

For the sequence KYEITTIHNLFRKLTHRLFRRNFGYTLR [KYE28], it took 10 µM to inhibit growth in data set [1] (MIC). For the same sequence, the Hemolytic activity entry in data set [2] is recorded as “significant hemolytic activities at higher doses (30-60 μM)”.

Regarding KYEITTIHNLFRKLTHRLFRR [KYE21], in data set [3], the “Time within which ~80% of the maximal CF release occurred” value was 5 to 10 min and the “CF release from liposomes” value was “caused CF release”.

As to NLFRKLTHRLFRRNFGYTLR [NLF20], the MIC in data set [1] is 2.5 µM. Moreover, in data set [3], the “Time within which ~80% of the maximal CF release occurred” value fell in the range of 5 to 10 min and the “CF release from liposomes” value is listed as “caused CF release”. Besides, the Hemolytic activity entry in data set [2] is given as “hemolytic activities at higher doses (30-60 μM)”.
